In paper PMC12670405, “Second-Generation AURKA-Targeting PROTACs: Structural Optimization toward in Vivo Degradation in Neuroblastoma” (Journal of Medicinal Chemistry, 2025):

What was measured:
SJNB-1 = assay: IncuCyte live-cell imaging, antiproliferative effect; assay type: cell-based; conditions: Homo sapiens, 72 h, read-out: Cell GI50 72h
Protocol: The use of human cell lines in this study was approved by the Ethics Committee of Ghent University Hospital (EC/029-2022/sds). Human neuroblastoma cell lines NGP, IMR-32, SJNB-8, SK-N-BE(2)-C, SJNB-1, SK-N-SH and SK-N-AS, as well as benign immortalized cell lines RPE and HEK293T were either bought commercially or obtained through research laboratories. The neuroblastoma cell lines and HEK293T were cultured in RPMI 1640 medium (Gibco, #52400041) supplemented with 10% fetal bovine serum (Sigma-Aldrich, #F0804), 2 mM L-glutamine (Gibco, #11548876), and 100 IU/mL penicillin/streptomycin (Gibco, #11548876). RPE cells were cultured in DMEM-F12 (Gibco, #11594426), supplemented with 10% fetal bovine serum, 2 mM L-glutamine and 100 IU/mL penicillin/streptomycin. Screening for mycoplasma contamination occurred routinely on the cells. […]
Neuroblastoma cells were seeded in 384-well plates at different densities ranging from 1200 to 5000 cells/well and allowed to adhere overnight. […] Compound treatment was performed using the D300e Digital Dispenser (Tecan) in duplicate or triplicate and cell confluency was monitored over time using the IncuCyte Live-cell imaging system (Sartorius). […] Mean normalized confluences were calculated from 3 individual experiments. […]

caspase 3/7 in NGP = assay: Caspase-Glo 3/7 assay; assay type: cell-based, human; conditions: 48 h, 1 μM tariquidar
Protocol: (§1) Neuroblastoma cells were seeded in 384-well plates at different densities ranging from 1200 to 5000 cells/well and allowed to adhere overnight. Compound treatment was performed using the D300e Digital Dispenser (Tecan) in duplicate. At the 48 h time point, a Caspase-Glo 3/7 Assay (Promega, #G8090) was performed following the manufacturer’s protocol, but adapted to add a 1:2 ratio of Caspase-Glo 3/7 reagent volume to sample volume. The readout was performed using the GloMax Discover Microplate Reader (Promega). Caspase 3/7 luminescence values were normalized to that of the DMSO negative control, and mean relative caspase 3/7 luminescence values were calculated from 3 individual experiments.

[1] = test system: caspase 3/7 in SK-N-BE(2)-C; assay: Caspase-Glo 3/7 assay; assay type: cell-based, human; conditions: 48 h, 1 μM tariquidar
Protocol: as §1

NanoLuc-AURKA = target: T1, NanoLuc-AURKA (Homo sapiens, UniProt O14965); assay: NanoBRET target engagement, permeabilized mode; assay type: binding; conditions: permeabilized HEK293T; read-out: NanoBRET IC50, tracer displacement from NanoLuc-AURKA
T1 construct: Plasmids encoding full-length wild-type AURKA fused to Nano-Luc; host or cells: HEK293T
T1 sequence (O14965 1-403): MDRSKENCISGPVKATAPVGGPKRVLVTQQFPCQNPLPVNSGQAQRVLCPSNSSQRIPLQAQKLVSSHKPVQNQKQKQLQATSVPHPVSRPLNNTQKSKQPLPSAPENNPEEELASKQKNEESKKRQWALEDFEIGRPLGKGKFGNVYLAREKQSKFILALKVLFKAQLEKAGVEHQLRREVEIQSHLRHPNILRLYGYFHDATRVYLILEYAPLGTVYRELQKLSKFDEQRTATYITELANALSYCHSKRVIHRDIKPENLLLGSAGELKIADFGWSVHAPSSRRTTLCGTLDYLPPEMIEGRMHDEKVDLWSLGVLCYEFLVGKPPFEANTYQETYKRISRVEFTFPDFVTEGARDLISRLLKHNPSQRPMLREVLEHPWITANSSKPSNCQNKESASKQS
Protocol: The NanoBRET Target Engagement Assay (Promega) was performed according to the recommended instructions from the manufacturer. Plasmids encoding full-length wild-type AURKA fused to Nano-Luc via AURKA’s C-terminus (Promega, #NV1041) were transfected into HEK293T cells using FuGENE HD (Promega, #E2312). […] The plate was mixed at 900 rpm for 15 s, using an orbital shaker. For the permeabilized-mode, digitonin (Sigma-Aldrich, #D141) was additionally added at a final concentration of 50 μg/mL. Test compounds were subsequently administered in duplicate using the D300e digital dispenser (Tecan), followed by incubation for 2 h (37 °C, 5% CO2). To measure BRET, nanoglo substrate and extracellular nanoluc inhibitor (only in live-mode) (Promega #N2540) were added, and luminescence was measured using the GloMax Discover Microplate Reader (Promega) with a luminescence filter pair of 450 nm (BP filter, donor) and 600 nm (LP filter, acceptor). The NanoBRET ratio was calculated using the following formula: BRET ratio = 1000*[(acceptor signal/donor signal)with tracer – (acceptor signal/donor signal)no tracer]. Relative BRET ratios (%) were generated by normalizing to the negative DMSO control. The experiment was performed once with 2 replicate samples.
All dose–response curves were computed on GraphPad Prism using the Variable Slope (four parameters) equation. Absolute half-maximal degradation (DC50), growth inhibitory (GI50) and enzymatic inhibitory (IC50) concentrations, as well as inhibition constants (Ki) were derived from dose–response curves via interpolation. Statistical tests were performed on GraphPad Prism and detailed in the figure legends. Unless otherwise stated, “n” in the figure legends indicates the number of independent experiments conducted at different times.

Which GI50 (SJNB-1) does the source give for `Cc1cc(Nc2ccc(F)c(CC3(C(=O)N4CCC(F)(CN5CCN(c6ccc(N7CCC(=O)NC7=O)cn6)CC5)CC4)CCN(Cc4cccc(Cl)c4F)CC3)n2)n[nH]1` [SK5527] here?
The GI50 was 8.63 µM.

And the “induction of apoptosis (caspase 3/7) upon cotreatment with tariquidar (in words)” value (“induction of apoptosis” for short) (caspase 3/7 in NGP)?
The value was “no difference”.

And the “induction of apoptosis” value [1]?
Its value is “significant increased induction of apoptosis”.

What about the IC50 (NanoLuc-AURKA) of the same molecule?
The IC50 was about 0.02 µM.

How did the GI50 (SJNB-1) turn out when `Cc1cc(Nc2ccc(F)c(CC3(C(=O)N4CCC(CN5CCN(c6ccc(N7CCC(=O)NC7=O)cn6)CC5)CC4)CCN(Cc4cccc(Cl)c4F)CC3)n2)n[nH]1` [SK4454] was run?
The GI50 was 13.4 µM.

What about the “induction of apoptosis” value (caspase 3/7 in NGP) of the same molecule?
The value was “no difference”.

What about the “induction of apoptosis” value [1] of the same molecule?
The value was “significant increased induction of apoptosis”.

And the IC50 (NanoLuc-AURKA)?
The IC50 was about 0.02 µM.
